Measurements taken from PMC11879692, “PDE4 inhibitor rolipram represses hedgehog signaling via ubiquitin-mediated proteolysis of GLI transcription factors to regress breast cancer” (The Journal of Biological Chemistry, 2025).

Columns and labels:
Format in all cases: cell-based, human
MDA-MB-231 cells [1] = assay: Annexin V-FITC and PI double staining; details: MDA-MB-231, IC50 dose, 24 h
Procedure: (§1) To analyze if the cells have undergone necrosis or apoptosis because of 24 h of rolipram treatment, cells were double stained with Annexin V-FITC and PI using BD Pharmingen Annexin V:FITC Apoptosis Detection Kit (BD Biosciences; catalog no.: BD556547) using the manufacturer’s protocol. The data obtained from BD LSRFortessa flow cytometer (RRID: SCR_019600) were analyzed using BD FACSDiva 9.0 software ([31], [32]) (RRID: SCR_001456).

MCF-7 cells [2] = assay: Annexin V-FITC and PI double staining; details: MCF-7, IC50 dose, 24 h
Procedure: as §1

MDA-MB-231 cells [3] = assay: Wound healing assay
Procedure: (§2) Cells were seeded and allowed to attain a 2D monolayer of cells. […] The percentage of open area was evaluated using Tscratch software (CSElab, Koumoutsakos group at ETH Zurich, https://github.com/cselab/TScratch) (RRID: SCR_014282).

MCF-7 cells [4] = assay: Wound healing assay
Procedure: as §2

COc1ccc(C2CNC(=O)C2)cc1OC1CCCC1 (stereo not drawn) [rolipram, Rolipram]
increase in the dead cell population (MDA-MB-231 cells [1]): 5.2% | increase in the dead cell population (MCF-7 cells [2]): 8.1% | percentage of open area (wound) (MDA-MB-231 cells [3]; MDA-MB-231, IC50 dose, 24 and 48 h, untreated 33% to 20% and 12%): no significant change | cell migration capability (MDA-MB-231 cells [3]; MDA-MB-231, in the presence of TAK-243 (0.1 μM)): failed to retard the cell migration capability | percentage of open area (wound) (MCF-7 cells [4]; MCF-7, IC50 dose, up to 48 h, untreated 45% to 34% (24 h) and 22% (48 h)): failed to significantly reduce the percentage of open area | cell migration capability (MCF-7 cells [4]; MCF-7, in the presence of TAK-243 (0.1 μM)): failed to retard the cell migration capability
